Test results: US5661182A, “Method for lowering oxygen affinity of hemoglobin in redcell suspensions, in whole blood and in vivo” (Virginia Commonwealth University, priority 1995, dated 1997)
Entries after “also recorded” stand apart in the source; their conditions may differ.

Legend:
[1] = target: hemoglobin in red cell suspensions (Homo sapiens, UniProt P68871+P69905); assay: Allosteric effector activity in the presence of serum albumin in buffered red cell suspensions (FIG. 3); type: cell-based; conditions: for effector activity in the presence of serum albumin: FIG. 3, effector 0.5 mM (L3,4,5 0.25 mM)
Description: L3,5 and L3,4,5 were provided by Dr. Lalezari (Montefiore Hospital, New York); RSR-4 [2-[4-[[(3,5-dichloroanilino)carbonyl]methyl]phenoxy]-2-methylpropionic acid]and RSR13 [2-4-[[(3,5- dimethylanilino)carbonyl]methyl]phenoxy]-2-methylpropionic acid] have been synthesized following the procedure described in Randad et al. (J. Med. Chem. 34,752 (1991)). Human serum albumin (HSA), bovine serum albumin (BSA) and 4,4'diisothiocyanatostilbene-2,2'-disulfonate (DIDS) were purchased from Sigma (St. Louis, Mo.). Due to their low solubility in aqueous buffer, 10 mM stock solutions of the compounds were prepared in a slight exccess of sodium bicarbonate and back-titrated to pH 7.4. For example, RSR-4 or RSR-13 was dissolved at 60° C. in a 140 mM NaCl and 50 mM bis-Tris buffer at room temperature upon progressive addition of NaHCO3 to obtain 10 mM stock solutions. The pH was carefully adjusted to 7.4 after complete solubilization and before use of the solutions. Fresh solutions were prepared each week. Stock solutions of DIDS (1 mM) were prepared, in the dark, on the day of the experiments in a pH 7.4 buffer. Human serum albumin (defatted HSA) and bovine serum albumin (BSA) were prepared freshly as 1 mM stock solutions, pH 7.4. Equilibrium Measurements. The allosteric modulation of the effectors on freshly prepared solutions of hemoglobin or red cell suspensions was measured by the change in p50, the partial pressure of oxygen for half-saturation. Oxygen equilibrium curves (OEC) were carried out with the Hemox analyzer (TCS, Southampton, Pa.) under the following conditions: pH 7.4, 140 mM NaCl and 50 mM bis-Tris buffer at 37° C. In all experiments, the concentration of hemoglobin in the red cell suspensions was 20-25 μM hemoglobin tetramer (Hb4) as measured by Drabkin's method (cyanomethemoglobin) at the end of each recording. The final concentration of the allosteric effector in the cuvette was 0.5 mM, resulting in an effector/Hb4 ratio of 20 in the absence of albumin. […]

[2] = system: hemoglobin in rat blood; assay: In vivo effect in conscious rats: oxygen dissociation curve of blood after 2-h infusion; conditions: for sign of distress: rats, during infusion
Description: In Vivo Studies. The in vivo effect of RSR-4 and RSR-13 was assessed in conscious rats that received (through a chronic femoral vein catheter) an initial 85.7±3.7 mg/kg dose of RSR-4 or 84.0±4.0 mg/kg dose of RSR-13, followed by 85.7±3.7mg/(kg h) RSR-4 or 84.0±4.0 mg/(kg h) RSR13, respectively, for 2 h. The oxygen dissociation curve was measured before infusion with a Hemox analyzer and, after the 2-h infusion, was manually measured with a tonometer and visible spectroscopy to avoid a dilution step (used with the Hemox analyzer) that would disrupt the equilibrium between the drug and erythrocytes. Tonometry was performed at a constant/pCO2 of 40 mmHg at 37° C. The pH of the blood was 7.443±0.012 (n=5) for the RSR-13 experiment and 7.412±0.098 (n=7) for the RSR-4 experiment. Control rats received an infusion of buffer solution with NaHCO3. A slight molar excess of NaHCO3 was used to better solubilize RSR-4.

[3] = target: hemoglobin in human red blood cells (Homo sapiens, UniProt P68871+P69905); assay: Calculated oxygen delivery index of human red blood cell suspensions (ΔY); type: cell-based; conditions: human RBC, effector 0.5 mM
Description: (§1) L3,5 and L3,4,5 were provided by Dr. Lalezari (Montefiore Hospital, New York); RSR-4 [2-[4-[[(3,5-dichloroanilino)carbonyl]methyl]phenoxy]-2-methylpropionic acid]and RSR13 [2-4-[[(3,5- dimethylanilino)carbonyl]methyl]phenoxy]-2-methylpropionic acid] have been synthesized following the procedure described in Randad et al. (J. Med. Chem. 34,752 (1991)). Human serum albumin (HSA), bovine serum albumin (BSA) and 4,4'diisothiocyanatostilbene-2,2'-disulfonate (DIDS) were purchased from Sigma (St. Louis, Mo.). Due to their low solubility in aqueous buffer, 10 mM stock solutions of the compounds were prepared in a slight exccess of sodium bicarbonate and back-titrated to pH 7.4. For example, RSR-4 or RSR-13 was dissolved at 60° C. in a 140 mM NaCl and 50 mM bis-Tris buffer at room temperature upon progressive addition of NaHCO3 to obtain 10 mM stock solutions. The pH was carefully adjusted to 7.4 after complete solubilization and before use of the solutions. Fresh solutions were prepared each week. Stock solutions of DIDS (1 mM) were prepared, in the dark, on the day of the experiments in a pH 7.4 buffer. Human serum albumin (defatted HSA) and bovine serum albumin (BSA) were prepared freshly as 1 mM stock solutions, pH 7.4. Equilibrium Measurements. The allosteric modulation of the effectors on freshly prepared solutions of hemoglobin or red cell suspensions was measured by the change in p50, the partial pressure of oxygen for half-saturation. Oxygen equilibrium curves (OEC) were carried out with the Hemox analyzer (TCS, Southampton, Pa.) under the following conditions: pH 7.4, 140 mM NaCl and 50 mM bis-Tris buffer at 37° C. In all experiments, the concentration of hemoglobin in the red cell suspensions was 20-25 μM hemoglobin tetramer (Hb4) as measured by Drabkin's method (cyanomethemoglobin) at the end of each recording. The final concentration of the allosteric effector in the cuvette was 0.5 mM, resulting in an effector/Hb4 ratio of 20 in the absence of albumin. OEC were also made in the same buffer containing 12.5, 25, 50, and 100 μM HSA (for human red cell suspensions) or BSA (for bovine cell suspensions). The serum albumin experiments were carried out with traces of an antifoaming agent. This agent has no deleterious effect on the red cell suspensions. The molar ratio of albumin to tetrameric hemoglobin was varied from 0.5 (at 12.5 μM HSA) to 4 (at 100 μM HSA); in whole blood this ratio is approximately 0.3 (0.7 mM albumin plus plasma proteins/2.25 mM Hb4). Therefore, the concentration of albumin used in the present studies was always larger relative to tetrameric hemoglobin than that found in whole blood.
In FIG. 2, curve (1) is the control, curve (2) is the suspension plus 0.5 mM RSR-4, curve (3) is the suspension plus 0.5 mM RSR-4 plus 50 μM HSA, and curve […] is the suspension plus 0.5 mM RSR-4 plus 100 μM HSA. The concentration ratios of albumin/Hb are above those found in vivo. For example, in curve (3) serum albumin is about six times and in curve (4) about twelve times in excess above the concentration ratio of albumin/Hb found in vivo. The vertical lines indicate the physiological pO2 values in the arterial blood (90 mmHg) and in the mixed venous blood (40 mmHg). The change in oxygen saturation between these two lines allows an estimation of the capability of the red blood cells to deliver oxygen to tissues (ΔY (%), as discussed below in conjunction with Table 4).
In Vivo Estimates for Percent of Oxygen Delivery. Table 4 presents the calculated oxygen delivery index for red blood cell suspensions in the presence or absence of 0.5 mM L3,5 or RSR-4. The experimental conditions for the experiments of Table 4 were the same as those used for Table 1. The oxygen delivery index was calculated from the experimental oxygen binding curves as the difference in hemoglobin oxygen saturation (percent) corresponding to the pO2 in the arterial blood (90 mmHg) and that in the mixed venous blood (40 mMHg). […]

[4] = target: HbA (normal adult hemoglobin) (Homo sapiens, UniProt P68871+P69905); assay: Oxygen equilibrium of isolated human Hb solutions (HbA p50); type: biochemical; conditions: human Hb solution; for p50 shift at increasing chloride concentration: 0.5 mM, chloride 0-400 mM; for HbA(p50): effector 0.5 mM, pH 7.2, 100 mM NaCl, 25 °C
Description: as §1
Bovine Red Cell Studies. […]

hemoglobin in red cell suspensions, sequence (P69905 whole entry): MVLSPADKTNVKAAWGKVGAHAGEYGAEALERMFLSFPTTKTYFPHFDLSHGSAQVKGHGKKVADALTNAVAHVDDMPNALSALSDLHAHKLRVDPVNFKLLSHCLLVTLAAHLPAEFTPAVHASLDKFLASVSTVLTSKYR
hemoglobin in red cell suspensions, sequence (P68871 whole entry): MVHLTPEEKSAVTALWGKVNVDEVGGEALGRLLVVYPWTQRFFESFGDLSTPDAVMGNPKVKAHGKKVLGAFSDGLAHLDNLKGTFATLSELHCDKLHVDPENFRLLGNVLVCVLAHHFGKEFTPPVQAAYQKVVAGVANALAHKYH
HbA (normal adult hemoglobin), sequence (P69905 whole entry): as the sequence (P69905 whole entry) above
HbA (normal adult hemoglobin), sequence (P68871 whole entry): as the sequence (P68871 whole entry) above
hemoglobin in human red blood cells, sequence (P69905 whole entry): as the sequence (P69905 whole entry) above
hemoglobin in human red blood cells, sequence (P68871 whole entry): as the sequence (P68871 whole entry) above

Cc1cc(C)cc(NC(=O)Cc2ccc(OC(C)(C)C(=O)O)cc2)c1 [RSR-13]
allosteric effector activity ([1]; 0.5 mM effector, in the presence of 50 μM albumin): greater than 90% | effector activity in the presence of serum albumin [1]: practically unaffected by serum albumin; also recorded: by far the least affected by serum albumin inhibition | Hill coefficient ([2]; rats (n=5), 84 mg/kg then 84 mg/(kg h) for 2 h, initial 2.62±0.10): 1.73±0.08 | p50 ([2]; rats (n=5), 84 mg/kg then 84 mg/(kg h) for 2 h, initial 36.0±2.7): 61.4±5.8 mmHg | sign of distress [2]: did not show any sign of distress

CC(C)(Oc1ccc(NC(=O)Nc2cc(Cl)cc(Cl)c2)cc1)C(=O)O [L3,5, reference compound]
ΔY (oxygen delivery index) ([3]; 50 μM HSA): 30% | ΔY (oxygen delivery index) ([3]; 100 μM HSA): 25% | ΔY (oxygen delivery index) ([3]; no HSA): 42% | p50 shift at increasing chloride concentration [4]: identical at all chloride concentrations | HbA(p50) [4]: 47 mmHg

CC(C)(Oc1ccc(CC(=O)Nc2cc(Cl)cc(Cl)c2)cc1)C(=O)O [RSR-4, 2-[4-[[(3,5-dichloroanilino)carbonyl]methyl]phenoxy]-2-methylpropionic acid]
effector activity in the presence of serum albumin [1]: greater than L3,5 and L3,4,5 at all serum albumin/Hb ratios studied | p50 ([2]; rats (n=7), 85.7±3.7 mg/kg iv then 85.7±3.7 mg/(kg h) for 2 h, control value 36.4±1.6): 60.7±8.1 mmHg | Hill coefficient ([2]; rats (n=7), 85.7±3.7 mg/kg iv then 85.7±3.7 mg/(kg h) for 2 h, initial 2.66±0.13): 1.74±0.08 | sign of distress [2]: did not show any sign of distress | ΔY (oxygen delivery index) ([3]; 50 μM HSA): 39% | ΔY (oxygen delivery index) ([3]; 100 μM HSA): 34% | ΔY (oxygen delivery index) ([3]; no HSA): 41.5% | p50 shift at increasing chloride concentration [4]: identical at all chloride concentrations | HbA(p50) [4]: 35.5 mmHg
